{"source": "paper PMC6694116", "about": "“A CRISPR-Cas12a-derived biosensing platform for the highly sensitive detection of diverse small molecules” (Nature Communications, 2019)", "molecules": {"B1": {"name": "dsDNA(TetR) (dsDNA)", "DNA 1": "TGAGCCATGTATCCAGGTCATTTGTCCCTATCAGTGATAGAGAAGCTCTGACAGTTCCA", "DNA 2": "TGGAACTGTCAGAGCTTCTCTATCACTGATAGGGACAAATGACCTGGATACATGGCTCA"}, "B2": {"name": "dsDNA(HucR) (dsDNA)", "DNA 1": "TACTGAGCCATGTATCCAGGTCATTGTACTTAGATGTCTACCTAAGCTCTGACAGTTCCA", "DNA 2": "TGGAACTGTCAGAGCTTAGGTAGACATCTAAGTACAATGACCTGGATACATGGCTCAGTA"}}, "key": {"[1]": {"molecular_target": "HosA (Escherichia coli, UniProt P69782)", "sequence (P69782 whole entry)": "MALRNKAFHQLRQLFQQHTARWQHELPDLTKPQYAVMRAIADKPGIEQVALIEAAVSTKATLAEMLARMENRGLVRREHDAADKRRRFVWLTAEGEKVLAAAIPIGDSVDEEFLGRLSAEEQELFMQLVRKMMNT", "assay": "EMSA, dissociation of operator dsDNA", "assay_type": "binding", "conditions": "pH 7.5, room temperature; allosteric effector"}, "[2]": {"molecular_target": "CBD-HosA (Escherichia coli, UniProt P69782)", "sequence (P69782 whole entry)": "as above", "assay": "EMSA, dissociation of operator dsDNA", "assay_type": "binding", "conditions": "1.8 mM p-HBA in the specificity test; pH 7.5, room temperature; allosteric effector; also Cas12a read-out with immobilised protein"}, "[3]": {"molecular_target": "CBD-TetR (Escherichia coli, UniProt P04483)", "sequence (P04483 whole entry)": "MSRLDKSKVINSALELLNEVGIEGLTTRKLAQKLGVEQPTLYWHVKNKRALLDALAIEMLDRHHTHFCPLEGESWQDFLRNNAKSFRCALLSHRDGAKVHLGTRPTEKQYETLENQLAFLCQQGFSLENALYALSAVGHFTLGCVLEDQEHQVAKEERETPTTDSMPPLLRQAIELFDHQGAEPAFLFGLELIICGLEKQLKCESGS", "conditions": "pH 7.5, room temperature; allosteric effector"}, "[4]": {"molecular_target": "T1, CBD-HucR (Deinococcus radiodurans, UniProt Q9RV71)", "T1 construct": "gene DR_1159", "T1 sequence (Q9RV71 1-181)": "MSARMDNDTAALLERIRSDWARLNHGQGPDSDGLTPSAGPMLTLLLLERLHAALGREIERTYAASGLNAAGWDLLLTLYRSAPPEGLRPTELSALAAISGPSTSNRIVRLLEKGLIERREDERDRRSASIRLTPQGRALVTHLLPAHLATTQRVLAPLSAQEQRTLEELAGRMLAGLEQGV", "assay": "EMSA, dissociation of operator dsDNA", "assay_type": "binding", "conditions": "0.05-500 uM uric acid; pH 7.5, room temperature; allosteric effector; also Cas12a read-out with immobilised protein"}, "[5]": {"molecular_target": "CBD-TetR (UniProt P04483 1-207)", "sequence (P04483 whole entry, the tested form may be a part)": "as the sequence (P04483 whole entry) above", "assay": "EMSA; 25-200 nM protein, 40 nM DNA; EMSA: 10 mM Tris-HCl pH 7.5, 100 mM KCl, 1 mM EDTA, 0.1 mM DTT, 5% glycerol, 0.01 mg/mL BSA, room temperature 30 min; 1.5% agarose gel in Tris-borate-EDTA at 4", "conditions": "protein: recombinant; tags: CBD fused via (SGGGG)4 linker; His tag; chain copies: 2; blunt"}, "[6]": {"molecular_target": "T2, CBD-HucR (UniProt Q9RV71 1-181)", "T2 sequence": "T1 sequence (Q9RV71 1-181)", "assay": "EMSA; 25-200 nM protein, 40 nM DNA; EMSA: 10 mM Tris-HCl pH 7.5, 100 mM KCl, 1 mM EDTA, 0.1 mM DTT, 5% glycerol, 0.01 mg/mL BSA, room temperature 30 min; 1.5% agarose gel in Tris-borate-EDTA at 4", "conditions": "protein: recombinant; tags: CBD fused via (SGGGG)4 linker; His tag; chain copies: 2; blunt"}}, "data": [{"molecule": "O=C(O)c1ccc(O)cc1", "note": "[p-HBA, p-hydroxybenzoic acid]", "values": [{"measurement": "EMSA, dissociation of operator dsDNA", "setting": "[1]", "value": "there were no significant differences between HosA and CBD-HosA on gel-shift images"}, {"measurement": "EMSA, dissociation of operator dsDNA", "setting": "[2]", "value": "p-HBA induced the almost complete dissociation of dsDNA from the CBD–HosA–dsDNA complex"}]}, {"molecule": "CN(C)[C@@H]1C(=O)C(C(N)=O)=C(O)[C@@]2(O)C(=O)C3=C(O)c4c(O)cccc4[C@@](C)(O)[C@H]3C[C@@H]12", "note": "[tetracycline]", "values": [{"measurement": "EMSA, dissociation of operator dsDNA", "setting": "[3]", "value": "Both CBD-TetR and CBD-HosA show perfect dsDNA-binding and effector-induced allosteric activities"}]}, {"molecule": "O=c1[nH]c(=O)c2[nH]c(=O)[nH]c2[nH]1", "note": "[uric acid]", "values": [{"measurement": "EMSA, dissociation of operator dsDNA", "setting": "[4]", "value": "increasing amounts of dsDNA dissociated from the CBD–HucR–dsDNA complex"}]}, {"molecule": "B1", "values": [{"measurement": "binding result", "setting": "[5]", "value": "binds"}]}, {"molecule": "B2", "values": [{"measurement": "binding result", "setting": "[6]", "value": "binds"}]}]}
